Source: ChEMBL document CHEMBL4431304, “Myritonines A-C, Alkaloids from Myrioneuron tonkinensis Based on a Novel Hexacyclic Skeleton” (J Nat Prod, 2016)
The source made the active and inactive calls. The rule behind the calls is not given here.

What was measured:
[1] = test system: HL-60; assay: Cytotoxicity against human HL60 cells assessed as reduction in cell viability after 48 hrs by MTT assay; type: functional, cell-based; conditions: HL-60, 48 h
[2] = test system: A549; assay: Cytotoxicity against human A549 cells assessed as reduction in cell viability after 48 hrs by MTT assay; type: functional, cell-based; conditions: A549, 48 h
[3] = test system: SMMC-7721; assay: Cytotoxicity against human SMMC7721 cells assessed as reduction in cell viability after 48 hrs by MTT assay; type: functional, cell-based; conditions: SMMC-7721, 48 h
[4] = test system: MCF7; assay: Cytotoxicity against human MCF7 cells assessed as reduction in cell viability after 48 hrs by MTT assay; type: functional, cell-based; conditions: MCF7, 48 h
[5] = test system: SW480; assay: Cytotoxicity against human SW480 cells assessed as reduction in cell viability after 48 hrs by MTT assay; type: functional, cell-based; conditions: SW480, 48 h
[6] = test system: Hepatitis C virus; assay: Antiviral activity against HCV infected in human Huh7.5 cells assessed as decrease in viral RNA level after 72 hrs by RT-PCR method; type: functional, organism-based; conditions: Hepacivirus hominis
[7] = Therapeutic index, ratio of CC50 for human Huh7.5 cells to EC50 for Hepatitis C virus; type: toxicity; conditions: read-out: Ratio CC50/EC50

Molecule `N#C[C@@H]1N2CCC[C@H]3[C@@H]4CCCCN4[C@@H]4CC[C@H]5CCC[C@]1(O)[C@@H]5N4[C@@H]32` has an IC50 [1] greater than 10 µM, an IC50 [2] greater than 10 µM and an IC50 [3] greater than 10 µM. It also gave an IC50 [4] greater than 10 µM and an IC50 [5] greater than 10 µM.

With `C1C[C@H]2CC[C@H]3N4CCCC[C@H]4[C@@H]4CCCN5C[C@@H](C1)[C@H]2N3[C@@H]45` the IC50 [1] was greater than 10 µM, the IC50 [2] was greater than 10 µM and the Activity [6] was “Active”. It also gave an IC50 [3] greater than 10 µM, an IC50 [4] greater than 10 µM and a selectivity ratio [7] greater than 12. The IC50 [5] was greater than 10 µM.

With `O=C1[C@H]2CCC[C@H]3CC[C@H]4N5CCCC[C@H]5[C@@H]5CCCN1[C@H]5N4[C@@H]32` the IC50 [1] was greater than 10 µM, the IC50 [2] was greater than 10 µM and the Activity [6] was “Active”. For the same molecule, the IC50 [3] was greater than 10 µM, the IC50 [4] was greater than 10 µM and the selectivity ratio [7] was greater than 11. For the same molecule, the IC50 [5] was greater than 10 µM.
